Entries after “also recorded” stand apart in the source; their conditions may differ.

A short description of data set [1]: DPPH radical scavenging assay. Here is the method: The antioxidant properties of the compounds under study were examined using the 2,2-Diphenyl-1-picrylhydrazyl (DPPH) assay, following a well-established protocol. A DPPH solution was prepared at a concentration of 0.1 mM in methanol. […] To ensure proper reaction, the mixtures were kept in the dark and incubated at room temperature for 30 min. After incubation, the absorbance of each sample was measured at 517 nm using a UV-VIS spectrophotometer. Gallic acid was used as the reference standard, and methanol served as the blank control.
The ability of the compounds to scavenge free radicals was determined by observing the reduction of DPPH at 517 nm, with lower absorbance values indicating higher antioxidant activity. The half-maximal inhibitory concentration (IC50), defined as the concentration of the compound needed to neutralize 50% of the DPPH radicals, was calculated from the dose–response curve. All experiments were performed in triplicate, and the results are reported as the mean of three independent trials. This method is widely recognized for its reliability and reproducibility in evaluating the antioxidant potential of chemical compounds.

For a further data set, the target named is T1, COX-2 (Homo sapiens, UniProt P35354).
T1 construct: endogenous in cells; host or cells: HIEC-6 cell lysate
T1 sequence (P35354 18-604): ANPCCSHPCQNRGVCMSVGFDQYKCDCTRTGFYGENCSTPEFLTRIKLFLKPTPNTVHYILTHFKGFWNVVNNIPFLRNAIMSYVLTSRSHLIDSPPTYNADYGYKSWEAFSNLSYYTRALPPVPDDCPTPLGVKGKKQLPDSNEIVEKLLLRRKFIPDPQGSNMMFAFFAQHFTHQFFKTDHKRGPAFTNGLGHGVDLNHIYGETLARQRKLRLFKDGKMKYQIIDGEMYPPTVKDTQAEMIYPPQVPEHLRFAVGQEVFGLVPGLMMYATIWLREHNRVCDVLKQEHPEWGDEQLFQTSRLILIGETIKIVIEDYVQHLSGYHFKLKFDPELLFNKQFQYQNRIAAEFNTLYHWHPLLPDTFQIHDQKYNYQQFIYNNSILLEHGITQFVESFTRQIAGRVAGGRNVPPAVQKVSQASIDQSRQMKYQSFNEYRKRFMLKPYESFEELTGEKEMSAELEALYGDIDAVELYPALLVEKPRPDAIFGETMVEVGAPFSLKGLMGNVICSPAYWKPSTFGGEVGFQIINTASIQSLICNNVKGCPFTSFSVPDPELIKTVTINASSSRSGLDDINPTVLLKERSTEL
In words: Cyclooxygenase (COX-2) activity assay in HIEC-6 cell lysate. Format: biochemical. The protocol: Cyclooxygenase (COX-2) activity assay was performed in HIEC-6 cells according to the manufacturer’s instructions (ab204699). Resorufin standards (0–20 pmol/well) were used to generate a calibration curve for quantifying sample concentrations. HIEC-6 cells were centrifuged at 500× g for 3 min and washed with PBS. The cell pellet was lysed in an ice-cold lysis buffer containing 10% Triton X-100 and a protease inhibitor cocktail in PBS for 5 min. The lysate was then centrifuged at 12,000× g for 3 min at 4 °C, and the supernatant was collected and kept on ice. Protein concentration in the supernatant was determined using a Bradford assay, with a bovine serum albumin standard curve (0–2000 µg/mL). […] This mixture was added to a 96-well plate, and the reaction was initiated by adding arachidonic acid (COX-2 substrate) dissolved in NaOH solution. The enzymatic reaction produced fluorescent resorufin dye, which was measured at excitation/emission wavelengths of λEx/Em = 535/587 nm.

The next data set concerns HIEC-6 cells. Kind of data set: Cell viability CCK-8 assay in HIEC-6. The format is cell-based, Human. The note with it: 24 h incubation. The protocol:
Human intestinal epithelial cells (HIEC-6), originally obtained from the American Type Culture Collection (ATCC), were cultured in Opti-MEM™ I Reduced Serum Medium (Cat. No. 31985) supplemented with 20 mM HEPES, 10 mM L-glutamine, 10 ng/mL epidermal growth factor, and 4% fetal bovine serum (FBS) (New York, NY, USA). Cells were maintained in a humidified 5% CO2 incubator at 37 °C. Cell viability was assessed using the CCK-8 assay, a colorimetric method based on the reduction of water-soluble tetrazolium salts (WST-8) to a water-soluble formazan dye, with the resulting color intensity proportional to the number of viable cells. Briefly, cells were harvested at approximately 80% confluence, detached using trypsin-EDTA, and centrifuged at 1000 rpm for 5 min. The cell pellet was resuspended in fresh medium, and the density was adjusted to 1 × 10^6 cells/mL. A volume of 100 µL (1 × 10^5 cells/well) was seeded into a 96-well plate, with one well containing the medium only as background control. […] Subsequently, 10 µL of CCK-8 reagent was added to each well, and the plate was incubated for 4 h. Absorbance was measured at 450 nm using a microplate reader, results are expressed as the mean ± standard deviation (SD).

Data set [2] is described as follows: Oral bioavailability / pharmacokinetics in rats. The note with it: rat serum; for Tmax: rat, serum, po. Format: in vivo, Sprague Dawley rats. Here is the method:
Male Sprague Dawley rats, aged 7–9 weeks and weighing 220 ± 20 g on average, were used for bioavailability studies. The animals were housed in the Laboratory Animal Research Unit at the University of Petra Pharmaceutical Center under controlled conditions: a temperature of 23 ± 2 °C, humidity of 55–65%, and a 12 h light/dark cycle. Prior to the experiments, the rats underwent a 10-day acclimatization period with free access to standard food and water. All procedures complied with the University of Petra’s animal use guidelines, which adhere to the standards of the Federation of European Laboratory Animal Sciences Association (FELASA). The rats were divided into three groups (n = 6 per group) and administered suspensions of GA, 3,4,5-TMBS, or 3,4,5-THBS prepared in 5% carboxymethylcellulose. Each compound was administered orally at a dose of 100 mg/kg, based on previous studies. Blood samples were collected from the retro-orbital plexus at 0.5, 1, 2, 3, 4, 6, 10, and 24 h post-administration. The samples were centrifuged at 5000 rpm for 10 min, and the serum was mixed with acetonitrile in a 1:3 ratio. After a second centrifugation at 5000 rpm for 15 min, the supernatant was collected for high-performance liquid chromatography (HPLC) analysis. HPLC analysis was conducted using a Shimadzu Class VP series system equipped with an LC-10AT VP pump, an SIL-10AD VP autosampler, and an SCL-10AVP system (Shimadzu, Kyoto, Japan). A C18 column (25 cm × 4.6 mm, 5 μm) was used, with a photodiode array detector set to a wavelength range of 200–400 nm. The mobile phase for TMBS and THBS consisted of a 50:50 (v/v) mixture of deionized water and acetonitrile containing 0.1% trifluoroacetic acid, flowing at 1 mL/min. For GA, the mobile phase was a 70:30 mixture of methanol and a water/sulfuric acid solution (100:2), also at a flow rate of 1 mL/min. The retention times for THBS and TMBS were 2.39 and 3.47 min, respectively, while GA eluted at 2.4 min, all detected at 254 nm. Results were analyzed using Lab Solution Software LC (version 5.3) and represent the average of three measurements.

Data set [3] has as its target T2, CYP2D6 (Homo sapiens, UniProt P10635).
T2 construct: purchased Sigma Aldrich C4982
In words: Metabolism by cytochrome P450 2D6 (CypExpress), HPLC. The note with it: 4 h. The format is in vitro ADME. Here is the method:
The enzymatic activity of cytochrome P450 2D6 (CYP2D6) was evaluated following the CypExpress protocol (C4982, Sigma Aldrich, Darmstadt, Germany). The reaction buffer consisted of 5 mM glucose-6-phosphate (G6P), 2 mM nicotinamide adenine dinucleotide phosphate (NADP+), and 3,4,5-TMBS prepared in PBS at concentrations of 1000 and 1500 µM. Diltiazem was used as a positive control. The reaction was initiated by adding CYP2D6, and the mixture was vortexed for 5 min. The samples were then incubated at 37 °C with gentle shaking at 100 rpm for 4 h. The reaction was terminated by adding acetonitrile, followed by centrifugation at 800 rpm for 10 min. The supernatant was collected and analyzed using HPLC.

Data set [4] deals with T2, CYP2D6. The data set is described as above. The format is in vitro ADME.
[5] abbreviates: male, Sprague Dawley, 100 mg/kg, n = 6.

T2 sequence (P10635 whole entry): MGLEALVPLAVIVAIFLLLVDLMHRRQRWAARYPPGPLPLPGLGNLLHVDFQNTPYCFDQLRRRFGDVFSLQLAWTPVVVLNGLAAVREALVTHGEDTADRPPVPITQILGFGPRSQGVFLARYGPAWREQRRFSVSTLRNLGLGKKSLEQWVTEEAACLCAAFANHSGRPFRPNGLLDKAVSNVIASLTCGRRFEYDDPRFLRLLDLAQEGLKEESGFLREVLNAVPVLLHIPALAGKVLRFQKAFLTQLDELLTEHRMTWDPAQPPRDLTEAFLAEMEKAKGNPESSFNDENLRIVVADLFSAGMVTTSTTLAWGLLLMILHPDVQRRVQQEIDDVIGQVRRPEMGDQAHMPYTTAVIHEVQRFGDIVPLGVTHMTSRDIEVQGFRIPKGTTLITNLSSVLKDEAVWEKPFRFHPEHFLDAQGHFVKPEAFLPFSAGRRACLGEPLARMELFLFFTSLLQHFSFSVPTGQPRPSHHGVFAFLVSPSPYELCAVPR

Regarding `O=C(O)c1cc(O)c(O)c(O)c1` [GA, 3,4,5-trihydroxybenzoic acid, reference compound], the EC50 in data set [1] was approximately 30 µM. The “DPPH radical scavenging activity” value in data set [1] (at 1000 µM) is on record as “exceeding 90%”. For the same compound, the ROS scavenging activity in data set [1] (at 1000 µM (abstract)) stood at 96%. For the same compound, the “COX-2 inhibition compared to ibuprofen” value at COX-2 (1 µM) was “weaker COX-2 inhibition than ibuprofen”. Moreover, on COX-2 (50 µM), the “COX-2 inhibition compared to ibuprofen” value is reported as “low COX-2 inhibition effect; also recorded: weaker COX-2 inhibition than ibuprofen”. In addition, the IC50 in the data set with HIEC-6 cells was determined as 47.6 ± 2.39 µM. The compound also showed a half-maximal inhibitory concentration (IC50) with HIEC-6 cells (Homo sapiens, HIEC-6, 24 h) of approximately 47 µM. Moreover, the highest concentration (Cmax) in data set [2] (male, Sprague Dawley, 100 mg/kg (table: 100 mg dose), n = 6) was 2140 ± 880 ng/mL. In addition, in data set [2] (setting [5]), the AUC(0-inf) came out at 13000 ± 5620 ng·h/mL, the AUC(0-t) came out at 9320 ± 4610 ng·h/mL, the CL/F was 148 mL/min/kg and the half-life was 3.6 ± 0.94 h. Also, in data set [2] (setting [5]), the Tmax was found to be 1.3 ± 0.22 h. The MRT inf in data set [2] (male, Sprague Dawley, 100 mg/kg, n = 6, read-out: MRT0–∞) was determined as 7.66 ± 2.99 h. Moreover, in data set [2] (male, Sprague Dawley, 100 mg/kg), the Tmax was 1.3 h. Besides, the Vz in data set [2] (100 mg/kg, n = 6) is 55.46 ± 23.99 (mg)/(μg/mL).

`COc1ccc([C@@H]2Sc3ccccc3N(CCN(C)C)C(=O)[C@@H]2OC(C)=O)cc1` [Diltiazem, reference compound]: the Metabolism by CYP2D6 (concentration) is 849.91 ± 0.62 µM on CYP2D6 [3] (1000 µM); 1235 ± 6.02 µM at CYP2D6 [3] (1500 µM); 828 ± 21.7 µM at CYP2D6 [4] (1000 µM, 1 h); 829 ± 78.1 µM at CYP2D6 [4] (1000 µM, 3 h); 1287 ± 12.8 µM at CYP2D6 [4] (1500 µM, 1 h); 1460 ± 133 µM at CYP2D6 [4] (1500 µM, 3 h).

(Values after article PMC12024234, “Antioxidant, Anti-Inflammatory, and Oral Bioavailability of Novel Sulfonamide Derivatives of Gallic Acid” (Antioxidants, 2025).)
